# Source: ChEMBL document CHEMBL5505983, “Design, synthesis, and molecular modeling studies of novel 2-quinolone-1,2,3-triazole-α-aminophosphonates hybrids as dual antiviral and antibacterial agents” (Eur J Med Chem, 2024)
# Tests used:
# [1] = tested on: Human rhinovirus sp.; assay: Antiviral activity against Human rhinovirus A2 infected in human HeLa-RH cells assessed as inhibition of cytopathic effect by microscopy based analysis; type: functional, organism-based
# [2] = tested on: Pseudomonas aeruginosa; assay: Ratio of MBC to MIC for Pseudomonas aeruginosa CIP A22; type: functional
# [3] = tested on: Escherichia coli; assay: Ratio of MBC to MIC for Escherichia coli CIP 53154; type: functional
# [4] = tested on: Zika virus; assay: Antiviral activity against Zika virus infected in african green monkey Vero E6 cells assessed as inhibition of cytopathic effect by microscopy based analysis; type: functional, organism-based; settings: Vero C1008
# [5] = tested on: Yellow fever virus; assay: Antiviral activity against Yellow fever virus infected in human Huh-7 cells assessed as inhibition of cytopathic effect by microscopy based analysis; type: functional, organism-based
# [6] = tested on: Escherichia coli; assay: Bactericidal activity against Escherichia coli CIP 53154; type: functional
# [7] = tested on: Enterococcus faecalis; assay: Ratio of MBC to MIC for Enterococcus faecalis; type: functional
# [8] = Cytotoxicity against African green monkey Vero E6 cells; type: toxicity, cell-based, Vero C1008; settings: chlorocebus sabaeus
# [9] = tested on: Pseudomonas aeruginosa; assay: Bactericidal activity against Pseudomonas aeruginosa CIP A22; type: functional
# [10] = Cytotoxicity against human RD cells; type: toxicity, cell-based
# [11] = tested on: Pseudomonas aeruginosa; assay: Antibacterial activity against Pseudomonas aeruginosa CIP A22 assessed as reduction in bacterial growth by micro-broth dilution method; type: functional
# [12] = Cytotoxicity against human Huh-7 cells; type: toxicity, cell-based
# [13] = tested on: Staphylococcus aureus; assay: Bactericidal activity against Staphylococcus aureus CIP 54127; type: functional
# [14] = tested on: Chikungunya virus; assay: Antiviral activity against CHIKV infected in African green monkey Vero A cells assessed as inhibition of cytopathic effect by microscopy based analysis; type: functional, organism-based
# [15] = Cytotoxicity against African green monkey Vero A cells; type: toxicity, cell-based; settings: chlorocebus sabaeus
# [16] = tested on: Staphylococcus aureus; assay: Antibacterial activity against Staphylococcus aureus CIP 54127 assessed as reduction in bacterial growth by micro-broth dilution method; type: functional
# [17] = tested on: Human rhinovirus sp.; assay: Antiviral activity against Human rhinovirus B14 infected in human HeLa-RH cells assessed as inhibition of cytopathic effect by microscopy based analysis; type: functional, organism-based
# [18] = tested on: Escherichia coli; assay: Antibacterial activity against Escherichia coli CIP 53154 assessed as reduction in bacterial growth by micro-broth dilution method; type: functional
# [19] = tested on: Enterococcus faecalis; assay: Bactericidal activity against Enterococcus faecalis; type: functional
# [20] = tested on: Enterococcus faecalis; assay: Antibacterial activity against Enterococcus faecalis assessed as reduction in bacterial growth by micro-broth dilution method; type: functional
# [21] = tested on: Staphylococcus aureus; assay: Ratio of MBC to MIC for Staphylococcus aureus CIP 54127; type: functional
# [22] = tested on: Enterovirus A71; assay: Antiviral activity against human EV71 infected in human RD cells assessed as inhibition of cytopathic effect by microscopy based analysis; type: functional, organism-based; settings: Enterovirus A
# [23] = Cytotoxicity against human HeLa-RH cells; type: toxicity, cell-based
# [24] = Selectivity index, ratio of CC50 for African green monkey Vero A cells to IC50 for CHIKV infected in African green monkey Vero A cells; type: toxicity; settings: read-out: Ratio CC50/IC50
SMILES,IC50 [1] [µM],Ratio [2],Ratio [3],IC50 [4] [µM],IC50 [5] [µM],MBC [6] [µM],Ratio [7],CC50 [8] [µM],MBC [9] [µM],CC50 [10] [µM],MIC [11] [µM],CC50 [12] [µM],MBC [13] [µM],IC50 [14] [µM],CC50 [15] [µM],MIC [16] [µM],MIC [18] [µM],MBC [19] [µM],MIC [20] [µM],Ratio [21],also measured
CCOP(=O)(OCC)C(Nc1ccccc1)c1cc(Cn2cc(Cn3c(=O)cc(C)c4cc(F)ccc43)nn2)ccc1O (stereo not given),> 1.23,2,1,> 100,> 100,1040,1,> 33.3,8260,> 100,8260,46.2,1040,> 100,> 100,510,1040,2060,2060,2.04,IC50 [17]: > 100 µM; IC50 [22]: > 100 µM; CC50 [23]: > 100 µM
CCOP(=O)(OCC)C(Nc1ccc(F)cc1)c1cc(Cn2cc(Cn3c(=O)cc(C)c4ccccc43)nn2)ccc1O (stereo not given),> 3.7,1.98,2.04,> 100,> 100,1040,1,> 100,2060,75.8,2060,31.4,510,26.6,75.2,260,510,70,70,1.96,selectivity ratio [24]: 2.83; IC50 [17]: > 100 µM; IC50 [22]: > 100 µM; CC50 [23]: 83.8 µM
CCOP(=O)(OCC)C(Nc1ccccc1OC)c1cc(Cn2cc(Cn3c(=O)cc(C)c4cc(F)ccc43)nn2)ccc1O (stereo not given),> 1.23,1.99,1,> 100,> 100,1970,1,> 33.3,1970,> 100,1970,88,490,> 100,40.8,250,1970,60,60,1.96,IC50 [17]: > 100 µM; IC50 [22]: > 100 µM; CC50 [23]: > 100 µM
CCOP(=O)(OCC)C(Nc1ccccc1)c1cc(Cn2cc(Cn3c(=O)cc(C)c4ccccc43)nn2)ccc1O (stereo not given),> 3.7,1,1.96,> 100,> 100,530,1,> 100,2130,> 100,2130,51.1,1070,56.9,> 100,530,270,270,270,2.02,selectivity ratio [24]: > 1.76; IC50 [17]: > 100 µM; IC50 [22]: > 100 µM; CC50 [23]: > 100 µM
CCN(CC)CCCC(C)Nc1ccnc2cc(Cl)ccc12 (stereo not given) [CHLOROQUINE],,,,,,,,,,,,,,11,89,,,,,,
CCOP(=O)(OCC)C(Nc1ccc(F)cc1)c1cc(Cn2cc(Cn3c(=O)cc(C)c4cc(F)ccc43)nn2)ccc1O (stereo not given),> 3.7,2,1,> 100,> 100,1010,1,> 100,8020,> 100,8020,29.3,500,> 100,> 100,500,1010,130,130,1,IC50 [17]: > 100 µM; IC50 [22]: > 100 µM; CC50 [23]: > 100 µM
CCOP(=O)(OCC)C(Nc1ccccc1Cl)c1cc(Cn2cc(Cn3c(=O)cc(C)c4ccccc43)nn2)ccc1O (stereo not given),> 1.23,1,1,> 100,> 100,260,1,> 33.3,1010,> 100,1010,30.5,500,> 33.3,24.3,500,260,60,60,1,IC50 [17]: > 100 µM; IC50 [22]: > 100 µM; CC50 [23]: 52.1 µM
CC1(C)S[C@@H]2[C@H](NC(=O)[C@H](N)c3ccccc3)C(=O)N2[C@H]1C(=O)O [AMPICILLIN],,1.96,2.04,,,530,1,,530,,530,,270,,,270,260,260,260,1,
CO[C@H]1/C=C/O[C@@]2(C)Oc3c(C)c(O)c4c(O)c(c(/C=N/N5CCN(C)CC5)c(O)c4c3C2=O)NC(=O)/C(C)=C\C=C\[C@H](C)[C@H](O)[C@@H](C)[C@@H](O)[C@@H](C)[C@H](OC(C)=O)[C@@H]1C [RIFAMPIN],,2.03,2.03,,,610,1,,610,,610,,150,,,80,300,300,300,1.88,
CCOP(=O)(OCC)C(Nc1ccc(C)cc1)c1cc(Cn2cc(Cn3c(=O)cc(C)c4cc(F)ccc43)nn2)ccc1O (stereo not given),> 11.1,2,1,> 100,> 100,930,1,> 100,7350,> 100,7350,> 100,240,> 100,> 33.3,240,930,60,60,1,IC50 [17]: > 100 µM; IC50 [22]: > 100 µM; CC50 [23]: > 100 µM
CCOP(=O)(OCC)C(Nc1ccc(C)cc1)c1cc(Cn2cc(Cn3c(=O)cc(C)c4ccccc43)nn2)ccc1O (stereo not given),> 3.7,2,1,> 100,> 100,520,1,> 100,4160,> 100,4160,27.9,520,> 100,> 100,520,520,70,70,1,IC50 [17]: > 100 µM; IC50 [22]: > 100 µM; CC50 [23]: > 100 µM
CCOP(=O)(OCC)C(Nc1ccccc1OC)c1cc(Cn2cc(Cn3c(=O)cc(C)c4ccccc43)nn2)ccc1O (stereo not given),> 1.23,1,2.04,> 100,> 100,1020,1,> 33.3,1020,> 100,1020,51.8,500,> 100,77.2,260,500,2020,2020,1.92,IC50 [17]: > 100 µM; IC50 [22]: > 100 µM; CC50 [23]: > 33.3 µM
